PubChem BioAssay AID248 (DTP/NCI, 2004)
Where “and” joins values, the source holds several entries; their conditions need not be identical. Identical values can stand only once. Toxic doses and inconclusive results are not listed.

Tested on: L1210 leukemia ip in BDF1 mice, survival T/C
Experiment: NCI In Vivo Anticancer Drug Screen. Data for tumor model L1210 Leukemia (intraperitoneal) in B6D2F1 (BDF1) mice
Conditions: endpoint: mean survival time, higher = longer survival
Method in brief: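 Each compound was tested against a transplantable tumor grown in mice. The endpoint was survival, with treated animals benchmarked against vehicle controls as a simple ratio.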

[1] = dose: 150.0 mg/kg/injection, schedule: Q01DX009 (ip), vehicle: saline

## OCC(Cc1ccccc1)N1CCCCC1 (configuration not stated)
dose: 5.0 mg/kg/injection, schedule: Q01DX001 (ip), vehicle: saline
  T/C: 109 % of control
dose: 10.0 mg/kg/injection, schedule: Q01DX001 (ip), vehicle: saline
  T/C: 96 % of control
dose: 20.0 mg/kg/injection, schedule: Q01DX001 (ip), vehicle: saline
  T/C: 96 % of control
dose: 40.0 mg/kg/injection, schedule: Q01DX001 (ip), vehicle: saline
  T/C: 96 % of control
dose: 80.0 mg/kg/injection, schedule: Q01DX001 (ip), vehicle: saline
  T/C: 96 % of control

## CCOC1OCN(C(C)C)CC1(C)C (configuration not stated)
dose: 75.0 mg/kg/injection, schedule: Q01DX009 (ip), vehicle: saline
  T/C: 110 % of control
[1]
  T/C: 119 % of control

## CCCCC(=C/C(C)(C)C)/C(=C/C(C)(C)C)CCCC
[1]
  T/C: 88 % of control
dose: 300.0 mg/kg/injection, schedule: Q01DX009 (ip), vehicle: saline
  T/C: 88 % of control

## O/N=C1\CCCc2sccc21
dose: 100.0 mg/kg/injection, schedule: Q01DX001 (ip), vehicle: steriod suspending solution
  T/C: 114 % of control
dose: 200.0 mg/kg/injection, schedule: Q01DX001 (ip), vehicle: steriod suspending solution
  T/C: 98 % of control
dose: 400.0 mg/kg/injection, schedule: Q01DX001 (ip), vehicle: steriod suspending solution
  T/C: 98 % of control

## O=C(Cc1ccccc1)c1ccccn1
dose: 100.0 mg/kg/injection, schedule: Q01DX001 (ip), vehicle: other
  T/C: 95 % of control
dose: 200.0 mg/kg/injection, schedule: Q01DX001 (ip), vehicle: other
  T/C: 98 % of control
dose: 400.0 mg/kg/injection, schedule: Q01DX001 (ip), vehicle: other
  T/C: 101 % of control

## BrCC(Br)C(Br)CBr (configuration not stated)
dose: 100.0 mg/kg/injection, schedule: Q01DX009 (ip), vehicle: saline
  T/C: 93 % of control
dose: 100.0 mg/kg/injection, schedule: Q04DX003 (ip), vehicle: saline
  T/C: 113 % of control
dose: 200.0 mg/kg/injection, schedule: Q01DX009 (ip), vehicle: saline
  T/C: 97 % of control
dose: 200.0 mg/kg/injection, schedule: Q04DX003 (ip), vehicle: saline
  T/C: 108 % of control
dose: 400.0 mg/kg/injection, schedule: Q01DX009 (ip), vehicle: saline
  T/C: 93 % of control
dose: 400.0 mg/kg/injection, schedule: Q04DX003 (ip), vehicle: saline
  T/C: 98 % of control

## Cc1cc(Cl)ccc1OC(=O)COc1cc(Cl)c(Cl)cc1Cl
dose: 1.56 mg/kg/injection, schedule: Q04DX002 (ip), vehicle: Klucel (hydroxypropylcellulose) (HPC)
  T/C: 108 % of control
dose: 3.13 mg/kg/injection, schedule: Q04DX002 (ip), vehicle: Klucel (hydroxypropylcellulose) (HPC)
  T/C: 108 % of control
dose: 6.25 mg/kg/injection, schedule: Q04DX002 (ip), vehicle: Klucel (hydroxypropylcellulose) (HPC)
  T/C: 105 % of control
dose: 12.5 mg/kg/injection, schedule: Q04DX002 (ip), vehicle: Klucel (hydroxypropylcellulose) (HPC)
  T/C: 95 % of control
dose: 25.0 mg/kg/injection, schedule: Q04DX002 (ip), vehicle: Klucel (hydroxypropylcellulose) (HPC)
  T/C: 100 % of control
dose: 50.0 mg/kg/injection, schedule: Q04DX002 (ip), vehicle: Klucel (hydroxypropylcellulose) (HPC)
  T/C: 100 % of control

## CC1(CCCOc2ccccc2C(=O)NCBr)N=C(N)N=C(N)N1c1ccccc1 (configuration not stated)
dose: 100.0 mg/kg/injection, schedule: Q01DX001 (ip), vehicle: Klucel (hydroxypropylcellulose) (HPC)
  T/C: 104 % of control

## Cn1c(CCCC(=O)O)nc2cc(N(CCCl)CCCl)ccc21
dose: 2.5 mg/kg/injection, schedule: Q01DX001 (ip), vehicle: other
  T/C: 101 % of control
dose: 2.5 mg/kg/injection, schedule: Q01DX009 (ip), vehicle: other
  T/C: 111 % of control
dose: 4.37 mg/kg/injection, schedule: Q01DX001 (ip), vehicle: saline
  T/C: 106 % of control
dose: 4.37 mg/kg/injection, schedule: Q04DX003 (ip), vehicle: saline
  T/C: 115 % of control
dose: 5.0 mg/kg/injection, schedule: Q01DX001 (ip), vehicle: other
  T/C: 109 % of control
dose: 5.0 mg/kg/injection, schedule: Q01DX009 (ip), vehicle: Klucel (hydroxypropylcellulose) (HPC)
  T/C: 117 % of control
dose: 5.0 mg/kg/injection, schedule: Q01DX009 (ip), vehicle: other
  T/C: 117 % of control
dose: 5.0 mg/kg/injection, schedule: Q04DX003 (ip), vehicle: other
  T/C: 120 % of control
dose: 6.6 mg/kg/injection, schedule: Q01DX009 (ip), vehicle: Klucel (hydroxypropylcellulose) (HPC)
  T/C: 110 % of control
dose: 8.75 mg/kg/injection, schedule: Q01DX001 (ip), vehicle: saline
  T/C: 117 % of control
dose: 8.75 mg/kg/injection, schedule: Q04DX003 (ip), vehicle: saline
  T/C: 123 % of control
dose: 10.0 mg/kg/injection, schedule: Q01DX001 (ip), vehicle: other
  T/C: 111 % of control and 124 % of control
dose: 10.0 mg/kg/injection, schedule: Q01DX009 (ip), vehicle: acetone
  T/C: 114 % of control
dose: 10.0 mg/kg/injection, schedule: Q01DX009 (ip), vehicle: other
  T/C: 120 % of control
dose: 10.0 mg/kg/injection, schedule: Q04DX003 (ip), vehicle: Klucel (hydroxypropylcellulose) (HPC)
  T/C: 117 % of control
dose: 10.0 mg/kg/injection, schedule: Q04DX003 (ip), vehicle: other
  T/C: 118 % of control
dose: 12.5 mg/kg/injection, schedule: Q01DX001 (ip), vehicle: saline
  T/C: 116 % of control
dose: 17.5 mg/kg/injection, schedule: Q01DX001 (ip), vehicle: saline
  T/C: 116 % of control
dose: 17.5 mg/kg/injection, schedule: Q04DX003 (ip), vehicle: saline
  T/C: 116 % of control
dose: 20.0 mg/kg/injection, schedule: Q01DX001 (ip), vehicle: carboxymethylcellulose (CMC)
  T/C: 117 % of control
dose: 20.0 mg/kg/injection, schedule: Q01DX001 (ip), vehicle: other
  T/C: 122 % of control
dose: 20.0 mg/kg/injection, schedule: Q01DX009 (ip), vehicle: Klucel (hydroxypropylcellulose) (HPC)
  T/C: 117 % of control
dose: 20.0 mg/kg/injection, schedule: Q01DX009 (ip), vehicle: acetone
  T/C: 110 % of control
dose: 20.0 mg/kg/injection, schedule: Q04DX003 (ip), vehicle: Klucel (hydroxypropylcellulose) (HPC)
  T/C: 119 % of control
dose: 20.0 mg/kg/injection, schedule: Q04DX003 (ip), vehicle: other
  T/C: 118 % of control
dose: 25.0 mg/kg/injection, schedule: Q01DX001 (ip), vehicle: other
  T/C: 119 % of control
dose: 25.0 mg/kg/injection, schedule: Q01DX001 (ip), vehicle: saline
  T/C: 115 % of control
dose: 25.0 mg/kg/injection, schedule: Q01DX009 (ip), vehicle: Klucel (hydroxypropylcellulose) (HPC)
  T/C: 89 % of control
dose: 26.4 mg/kg/injection, schedule: Q04DX003 (ip), vehicle: saline
  T/C: 124 % of control
dose: 35.0 mg/kg/injection, schedule: Q01DX001 (ip), vehicle: Klucel (hydroxypropylcellulose) (HPC)
  T/C: 115 % of control
dose: 40.0 mg/kg/injection, schedule: Q01DX001 (ip), vehicle: carboxymethylcellulose (CMC)
  T/C: 117 % of control
dose: 40.0 mg/kg/injection, schedule: Q01DX009 (ip), vehicle: Klucel (hydroxypropylcellulose) (HPC)
  T/C: 87 % of control
dose: 40.0 mg/kg/injection, schedule: Q01DX009 (ip), vehicle: other
  T/C: 88 % of control
dose: 40.0 mg/kg/injection, schedule: Q04DX003 (ip), vehicle: other
  T/C: 115 % of control and 123 % of control
dose: 40.0 mg/kg/injection, schedule: Q04DX003 (ip), vehicle: saline
  T/C: 119 % of control
dose: 50.0 mg/kg/injection, schedule: Q01DX001 (ip), vehicle: Klucel (hydroxypropylcellulose) (HPC)
  T/C: 123 % of control
dose: 50.0 mg/kg/injection, schedule: Q01DX001 (ip), vehicle: other
  T/C: 156 % of control
dose: 75.0 mg/kg/injection, schedule: Q01DX001 (ip), vehicle: Klucel (hydroxypropylcellulose) (HPC)
  T/C: 112 % of control
dose: 75.0 mg/kg/injection, schedule: Q01DX001 (ip), vehicle: other
  T/C: 110 % of control
dose: 80.0 mg/kg/injection, schedule: Q01DX001 (ip), vehicle: carboxymethylcellulose (CMC)
  T/C: 112 % of control
dose: 80.0 mg/kg/injection, schedule: Q01DX001 (ip), vehicle: other
  T/C: 114 % of control
dose: 80.0 mg/kg/injection, schedule: Q04DX003 (ip), vehicle: other
  T/C: 87 % of control and 91 % of control

## N#Cc1cccc(-c2nc3ncnc(N)c3[nH]2)c1
dose: 100.0 mg/kg/injection, schedule: Q04DX003 (ip), vehicle: Klucel (hydroxypropylcellulose) (HPC)
  T/C: 94 % of control
dose: 200.0 mg/kg/injection, schedule: Q04DX003 (ip), vehicle: Klucel (hydroxypropylcellulose) (HPC)
  T/C: 96 % of control
dose: 400.0 mg/kg/injection, schedule: Q04DX003 (ip), vehicle: Klucel (hydroxypropylcellulose) (HPC)
  T/C: 92 % of control

## Nc1scc2[nH]c3ccccc3[n+]12
dose: 100.0 mg/kg/injection, schedule: Q04DX002 (ip), vehicle: saline
  T/C: 100 % of control
dose: 200.0 mg/kg/injection, schedule: Q04DX002 (ip), vehicle: saline
  T/C: 104 % of control

## Cln1nnc2ccccc21
dose: 100.0 mg/kg/injection, schedule: Q04DX002 (ip), vehicle: other
  T/C: 91 % of control
dose: 200.0 mg/kg/injection, schedule: Q04DX002 (ip), vehicle: other
  T/C: 106 % of control
